# Measurements published in US20170190671A1, “BIS(ARYL)CATECHOL DERIVATIVES AS HERBICIDES” (E I DU PONT DE NEMOURS AND COMPANY, priority 2014, published 2017).
# What was measured:
# Assay type in all cases: in vivo
# [1] = system: Italian ryegrass (Lolium multiflorum); experiment: Test C preemergence; settings: Lolium multiflorum, pre-emergence, 336 h, scale 0 to 100, read-out: Plant response rating, Ryegrass, Italian
# Outline: (§1)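 Greenhouse test; preemergence to seeds in loam/sand soil, or postemergence spray to 2-18 cm, 1- to 4-leaf plants in peat/vermiculite medium; compound in non-phytotoxic solvent plus surfactant. Visual rating vs controls at 13-15 d, 0 = no effect, 100 = complete control.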
# [2] = system: blackgrass (Alopecurus myosuroides); experiment: Test C preemergence; settings: Alopecurus myosuroides, pre-emergence, 336 h, scale 0 to 100, read-out: Plant response rating, Blackgrass
# Outline: as §1
# [3] = system: corn (Zea mays); experiment: Test C preemergence; settings: Zea mays, pre-emergence, 336 h, scale 0 to 100
# Outline: as §1
# [4] = system: galium (catchweed bedstraw, Galium aparine); experiment: Test C preemergence; settings: Galium, pre-emergence, 336 h, scale 0 to 100, read-out: Plant response rating, Galium
# Outline: as §1
# [5] = system: giant foxtail (Setaria faberii); experiment: Test C preemergence; settings: Setaria faberi, pre-emergence, 336 h, scale 0 to 100, read-out: Plant response rating, Foxtail, Giant
# Outline: as §1
# [6] = system: johnsongrass (Sorghum halepense); experiment: Test C preemergence; settings: Sorghum halepense, pre-emergence, 336 h, scale 0 to 100, read-out: Plant response rating, Johnsongrass
# Outline: as §1
# [7] = system: large (Lg) crabgrass (Digitaria sanguinalis); experiment: Test C preemergence; settings: Digitaria sanguinalis, pre-emergence, 336 h, scale 0 to 100, read-out: Plant response rating, Crabgrass, Large
# Outline: as §1
# [8] = system: morningglory (Ipomoea coccinea); experiment: Test C preemergence; settings: Ipomoea, pre-emergence, 336 h, scale 0 to 100, read-out: Plant response rating, Morningglory
# Outline: as §1
# [9] = system: oilseed rape (Brassica napus); experiment: Test C preemergence; settings: Brassica napus, pre-emergence, scale 0 to 100, read-out: Plant response rating, Oilseed Rape
# Outline: as §1
# [10] = system: pigweed (Amaranthus retroflexus); experiment: Test C preemergence; settings: Amaranthus retroflexus, pre-emergence, 336 h, scale 0 to 100, read-out: Plant response rating, Pigweed
# Outline: as §1
# [11] = system: ragweed (common ragweed, Ambrosia elatior); experiment: Test C preemergence; settings: Ambrosia artemisiifolia, pre-emergence, 336 h, scale 0 to 100, read-out: Plant response rating, Ragweed
# Outline: as §1
# [12] = system: soybean (Glycine max); experiment: Test C preemergence; settings: Glycine max, pre-emergence, scale 0 to 100, read-out: Plant response rating, Soybean
# Outline: as §1
# [13] = system: velvetleaf (Abutilon theophrasti); experiment: Test C preemergence; settings: Abutilon theophrasti, pre-emergence, scale 0 to 100, read-out: Plant response rating, Velvetleaf
# Outline: as §1
# [14] = system: waterhemp (common waterhemp, Amaranthus rudis); experiment: Test C preemergence; settings: Amaranthus tuberculatus, pre-emergence, scale 0 to 100, read-out: Plant response rating, Waterhemp
# Outline: as §1
# [15] = system: winter wheat (Triticum aestivum); experiment: Test C preemergence; settings: Triticum aestivum, pre-emergence, 336 h, scale 0 to 100, read-out: Plant response rating, Wheat
# Outline: as §1
# [16] = system: yellow nutsedge (Cyperus esculentus); experiment: Test C preemergence; settings: Cyperus, pre-emergence, 336 h, scale 0 to 100, read-out: Plant response rating, Nutsedge, Yellow
# Outline: as §1
# [17] = system: blackgrass (Alopecurus myosuroides); experiment: Test C postemergence; settings: Alopecurus myosuroides, post-emergence, 336 h, Postemergence, scale 0 to 100, read-out: Plant response rating, Blackgrass
# Outline: as §1
# [18] = system: chickweed (common chickweed, Stellaria media); experiment: Test C postemergence; settings: Stellaria media, post-emergence, Postemergence, scale 0 to 100, read-out: Plant response rating, Chickweed
# Outline: as §1
# [19] = system: giant foxtail (Setaria faberii); experiment: Test C postemergence; settings: Setaria faberi, post-emergence, 336 h, Postemergence, scale 0 to 100, read-out: Plant response rating, Foxtail, Giant
# Outline: as §1
# [20] = system: lambsquarters (Chenopodium album); experiment: Test C postemergence; settings: Chenopodium album, post-emergence, 336 h, Postemergence, scale 0 to 100, read-out: Plant response rating, Lambsquarters
# Outline: as §1
# [21] = system: velvetleaf (Abutilon theophrasti); experiment: Test C postemergence; settings: Abutilon theophrasti, post-emergence, Postemergence, scale 0 to 100, read-out: Plant response rating, Velvetleaf
# Outline: as §1
# [22] = system: yellow nutsedge (Cyperus esculentus); experiment: Test C postemergence; settings: Cyperus, post-emergence, 336 h, Postemergence, scale 0 to 100, read-out: Plant response rating, Nutsedge, Yellow
# Outline: as §1
structure (smiles),measurement,setting,value
"Fc1cccc(Oc2ncc(C(F)(F)F)cn2)c1Oc1ncc(Cl)cn1 [Compound 42, 5-chloro-2-[2-fluoro-6-[[5-(trifluoromethyl)-2-pyrimidinyl]oxy]phenoxy]pyrimidine]",pest or weed control at 31 g/ha,"[1]; 31 g ai/ha, preemergence",70%
same,pest or weed control at 62 g/ha,"[1]; 62 g ai/ha, preemergence",80%
same,pest or weed control at 125 g/ha,"[1]; 125 g ai/ha, preemergence",95%
same,pest or weed control at 16 g/ha,"[1]; Preemergence, 16 g ai/ha",5%
same,pest or weed control at 31 g/ha,"[2]; 31 g ai/ha, preemergence",65%
same,pest or weed control at 62 g/ha,"[2]; 62 g ai/ha, preemergence",90%
same,pest or weed control at 125 g/ha,"[2]; 125 g ai/ha, preemergence",90%
same,pest or weed control at 16 g/ha,"[2]; Preemergence, 16 g ai/ha",35%
same,"Corn plant response rating (crop injury, 0 = no effect, 100 = complete kill) at 31 g/ha","[3]; 31 g ai/ha, preemergence",5%
same,"Corn plant response rating (crop injury, 0 = no effect, 100 = complete kill) at 62 g/ha","[3]; 62 g ai/ha, preemergence",80%
same,"Corn plant response rating (crop injury, 0 = no effect, 100 = complete kill) at 125 g/ha","[3]; 125 g ai/ha, preemergence",85%
same,"Corn plant response rating (crop injury, 0 = no effect, 100 = complete kill) at 16 g/ha","[3]; Preemergence, 16 g ai/ha",0%
same,pest or weed control at 31 g/ha,"[4]; 31 g ai/ha, preemergence",95%
same,pest or weed control at 62 g/ha,"[4]; 62 g ai/ha, preemergence",95%
same,pest or weed control at 125 g/ha,"[4]; 125 g ai/ha, preemergence",98%
same,pest or weed control at 16 g/ha,"[4]; Preemergence, 16 g ai/ha",95%
same,pest or weed control at 31 g/ha,"[5]; 31 g ai/ha, preemergence",100%
same,pest or weed control at 62 g/ha,"[5]; 62 g ai/ha, preemergence",100%
same,pest or weed control at 125 g/ha,"[5]; 125 g ai/ha, preemergence",100%
same,pest or weed control at 16 g/ha,"[5]; Preemergence, 16 g ai/ha",85%
same,pest or weed control at 31 g/ha,"[6]; 31 g ai/ha, preemergence",70%
same,pest or weed control at 62 g/ha,"[6]; 62 g ai/ha, preemergence",100%
same,pest or weed control at 125 g/ha,"[6]; 125 g ai/ha, preemergence",100%
same,pest or weed control at 16 g/ha,"[6]; Preemergence, 16 g ai/ha",30%
same,pest or weed control at 31 g/ha,"[7]; 31 g ai/ha, preemergence",100%
same,pest or weed control at 62 g/ha,"[7]; 62 g ai/ha, preemergence",100%
same,pest or weed control at 125 g/ha,"[7]; 125 g ai/ha, preemergence",100%
same,pest or weed control at 16 g/ha,"[7]; Preemergence, 16 g ai/ha",100%
same,pest or weed control at 31 g/ha,"[8]; 31 g ai/ha, preemergence",85%
same,pest or weed control at 62 g/ha,"[8]; 62 g ai/ha, preemergence",100%
same,pest or weed control at 125 g/ha,"[8]; 125 g ai/ha, preemergence",100%
same,pest or weed control at 16 g/ha,"[8]; Preemergence, 16 g ai/ha",60%
same,plant injury at 31 g/ha,"[9]; 31 g ai/ha, preemergence",100%
same,plant injury at 62 g/ha,"[9]; 62 g ai/ha, preemergence",100%
same,plant injury at 125 g/ha,"[9]; 125 g ai/ha, preemergence",100%
same,plant injury at 16 g/ha,"[9]; Preemergence, 16 g ai/ha",98%
same,pest or weed control at 31 g/ha,"[10]; 31 g ai/ha, preemergence",100%
same,pest or weed control at 62 g/ha,"[10]; 62 g ai/ha, preemergence",100%
same,pest or weed control at 125 g/ha,"[10]; 125 g ai/ha, preemergence",100%
same,pest or weed control at 16 g/ha,"[10]; Preemergence, 16 g ai/ha",100%
same,pest or weed control at 31 g/ha,"[11]; 31 g ai/ha, preemergence",55%
same,pest or weed control at 62 g/ha,"[11]; 62 g ai/ha, preemergence",98%
same,pest or weed control at 125 g/ha,"[11]; 125 g ai/ha, preemergence",90%
same,pest or weed control at 16 g/ha,"[11]; Preemergence, 16 g ai/ha",30%
same,plant injury at 31 g/ha,"[12]; 31 g ai/ha, preemergence",50%
same,plant injury at 62 g/ha,"[12]; 62 g ai/ha, preemergence",80%
same,plant injury at 125 g/ha,"[12]; 125 g ai/ha, preemergence",95%
same,plant injury at 16 g/ha,"[12]; Preemergence, 16 g ai/ha",25%
same,pest or weed control at 31 g/ha,"[13]; 31 g ai/ha, preemergence",100%
same,pest or weed control at 62 g/ha,"[13]; 62 g ai/ha, preemergence",100%
same,pest or weed control at 125 g/ha,"[13]; 125 g ai/ha, preemergence",100%
same,pest or weed control at 16 g/ha,"[13]; Preemergence, 16 g ai/ha",100%
same,pest or weed control at 31 g/ha,"[14]; 31 g ai/ha, preemergence",100%
same,pest or weed control at 62 g/ha,"[14]; 62 g ai/ha, preemergence",100%
same,pest or weed control at 125 g/ha,"[14]; 125 g ai/ha, preemergence",100%
same,pest or weed control at 16 g/ha,"[14]; Preemergence, 16 g ai/ha",95%
same,plant injury at 31 g/ha,"[15]; 31 g ai/ha, preemergence",30%
same,plant injury at 62 g/ha,"[15]; 62 g ai/ha, preemergence",45%
same,plant injury at 125 g/ha,"[15]; 125 g ai/ha, preemergence",90%
same,plant injury at 16 g/ha,"[15]; Preemergence, 16 g ai/ha",0%
same,pest or weed control at 31 g/ha,"[16]; 31 g ai/ha, preemergence",10%
same,pest or weed control at 62 g/ha,"[16]; 62 g ai/ha, preemergence",50%
same,pest or weed control at 125 g/ha,"[16]; 125 g ai/ha, preemergence",75%
same,pest or weed control at 16 g/ha,"[16]; Preemergence, 16 g ai/ha",0%
same,pest or weed control at 16 g/ha,[17]; 16 g ai/ha,10%
same,pest or weed control at 31 g/ha,[17]; 31 g ai/ha,20%
same,pest or weed control at 62 g/ha,[17]; 62 g ai/ha,20%
same,pest or weed control at 125 g/ha,[17]; 125 g ai/ha,80%
same,pest or weed control at 16 g/ha,[18]; 16 g ai/ha,20%
same,pest or weed control at 31 g/ha,[18]; 31 g ai/ha,90%
same,pest or weed control at 62 g/ha,[18]; 62 g ai/ha,95%
same,pest or weed control at 125 g/ha,[18]; 125 g ai/ha,95%
same,pest or weed control at 16 g/ha,[19]; 16 g ai/ha,30%
same,pest or weed control at 31 g/ha,[19]; 31 g ai/ha,30%
same,pest or weed control at 62 g/ha,[19]; 62 g ai/ha,35%
same,pest or weed control at 125 g/ha,[19]; 125 g ai/ha,35%
same,pest or weed control at 16 g/ha,[20]; 16 g ai/ha,80%
same,pest or weed control at 31 g/ha,[20]; 31 g ai/ha,80%
same,pest or weed control at 62 g/ha,[20]; 62 g ai/ha,90%
same,pest or weed control at 125 g/ha,[20]; 125 g ai/ha,95%
same,pest or weed control at 31 g/ha,[21]; 31 g ai/ha,60%
same,pest or weed control at 62 g/ha,[21]; 62 g ai/ha,70%
same,pest or weed control at 125 g/ha,[21]; 125 g ai/ha,85%
same,pest or weed control at 31 g/ha,[22]; 31 g ai/ha,0%
same,pest or weed control at 62 g/ha,[22]; 62 g ai/ha,5%
same,pest or weed control at 125 g/ha,[22]; 125 g ai/ha,5%
